How the values were obtained:
IL-1β = experiment: Inhibition of IL-1β secretion from LPS stimulated peripheral blood mononuclear cells (ELISA); assay type: cell-based; conditions: LPS (1 μg/ml) stimulated human PBMC, 18 hours; read-out: The median inhibition concentration (IC50, nM) of IL-1β
Procedure: (§1) To study the effect of the compound of the present invention, in vitro, the inhibition of the IL-1β and TNF-α secretion was measured using the following procedure:
(§2) Cytokine production was measured in the media from lipopolysaccharide (LPS) stimulated peripheral blood mononuclear cells. The mononuclear cells were isolated from human peripheral blood by Lymphoprep® (Nycomed, Norway) fractionation and suspended in RPMI 1640 (growth medium) with foetal calv serum (FCS, 2%), at a concentration of 5×10^5 cells/ml. The cells were incubated in 24-well tissue culture plates in 1 ml aliquots. Test compounds were dissolved in dimethylsulfoxide (DMSO, 10 mM) and were diluted with the medium. Compounds were added to the cells for 30 minutes, then LPS (1 μg/ml final concentration) was added. The plates were incubated for 18 hours, and the concentration of IL-1β and TNF-α in the medium was determined by enzyme-linked immunosorbent assays. The median inhibitory concentrations (IC50) of the compounds were calculated.

myeloperoxidase (MPO) = experiment: TPA induced murine chronic skin inflammation model, myeloperoxidase (MPO) activity in ear biopsies; assay type: in vivo, mice; conditions: topical, twice daily on day 8, 9 and 10 and once on day 11
Procedure: (§3) To study the compounds of the present invention in vivo the 12--O--tetradecanoylphorbol-13-acetate (TPA) induced murine chronic skin inflammation model were used (De Young, L. M. et al, Agents Actions, 26, 335-341 (1989); Carlson, R. P. et al, Agents Actions, 17, 197-204 (1985); Alford, J. G. et al, Agents Action, 37, (1992); Stanley, P. L. et al, Skin Pharmacol, 4, 262-271 (1991)). The compounds were tested using the following procedure:
(§4) In groups of 6 female mice weighing 18-25 grams, ear skin inflammation was induced by multiple topical applications of TPA on alternate days during a 10 day period. The resulting inflammation was treated topically with compounds in acetone (20 μl/ear) twice daily on day 8, 9 and 10 and once on day 11. The increased ear thickness (ET, right ear thickness minus left ear thickness) was determined approximately 6 hours after the treatment, the mice were sacrificed and the myeloperoxidase (MPO)-activitywas determined in ear biopsies.

TNF-α = experiment: Inhibition of TNF-α secretion from LPS stimulated peripheral blood mononuclear cells (ELISA); assay type: cell-based; conditions: LPS (1 μg/ml) stimulated human PBMC, 18 hours; read-out: The median inhibition concentration (IC50, nM) of TNF-α
Procedure: as §1, §2

PMN-superoxide = experiment: Inhibition of PMN (polymorphonuclear) superoxide secretion; assay type: cell-based; conditions: human PMN granulocytes, TNF-α primed, fMLP 10^-7 M; read-out: The median inhibition concentration (IC50, nM) of PMN-superoxide
Procedure: The compounds of the present invention also show similar activities in the ability to inhibit PMN (polymorphonuclear) superoxide secretion which is also indicative of potentially useful anti-inflammatory drugs. The compounds were tested using the following procedure:
Human polymorphonuclear (PMN) granulocytes were isolated from human blood by dextran sedimentation, Lymphoprep® fractionation and hypotonic lysis of contaminating erythrocytes.
Superoxide anion generation was measured as the superoxide dismutase inhibitable reduction of ferricytochrome C (Madhu, S. B. et al, Inflammation, 16, 241, (1992)).
The cells were suspended in Hanks' balanced salt solution, and incubated for 10 minutes at 37° C. with test compounds. The cells were primed by the addition of TNF-α (3 ng/ml final concentration) for 10 minutes, and then ferricytochrome C, (final concentration 750 μg/ml), bovine serum albumin (BSA, final concentration 1 mg/ml) and formyl-methionyl-leucyl-phenylalanine (fMLP, final concentration 10^-7 M) were added for 3 minutes.
The cells were chilled on ice, and were spun down. The optical densities in the cell-free supernatant was measured in a spectrophotometer.
The median inhibitory concentration (IC50) of the compounds was calculated.

[1] = tested on: TPA induced murine skin inflammation; experiment: TPA induced murine chronic skin inflammation model, ear thickness (ET); assay type: in vivo, mice; conditions: topical, twice daily on day 8, 9 and 10 and once on day 11
Procedure: as §3, §4

[2] = Spleen and thymus weight in the TPA induced murine skin inflammation model; assay type: in vivo, mice; conditions: 0.1 mg/ear, topical
Procedure: as §3, §4

| IC50 (IL-1β) [nM] | IC50 (TNF-α) [nM] | IC50 (PMN-superoxide) [nM] | SMILES | % inhibition of MPO (myeloperoxidase (MPO); 0.1 mg/ear) [%] | % inhibition of ET ([1]; 0.1 mg/ear) [%] | % inhibition of MPO (myeloperoxidase (MPO); 0.03 mg/ear) [%] | Reduction of spleen and thymus weight [2] | % inhibition of ET ([1]; 0.03 mg/ear) [%] |
| --- | --- | --- | --- | --- | --- | --- | --- | --- |
| 250 | 790 | 160 | Nc1ccccc1Nc1ccc(C(=O)c2ccccc2)cc1 [Example 1, 4-(2-Aminophenylamino)benzophenone] | 65 | 50 |  |  |  |
| 160 | 200 | 40 | Nc1ccccc1Nc1ccc(C(=O)c2ccccc2Cl)cc1 [Example 13, 4-(2-Aminophenylamino)-2'-chlorobenzophenone] |  |  |  |  |  |
| 100 | 130 | > 10000 | CCOC(=O)Nc1ccccc1Nc1ccc(C(=O)c2ccccc2)cc1 [Example 32, Ethyl N-(2-(4-benzoylphenylamino)phenyl)carbamate] |  |  |  |  |  |
| 13 | 7.1 | 5 | Cc1ccccc1C(=O)c1ccc(Nc2ccccc2N)cc1Cl [Example 56, 4-(2-Aminophenylamino)-2-chloro-2'-methylbenzophenone] |  |  |  |  |  |
| 32 | 5 | 5 | CCOC(=O)Nc1ccccc1Nc1ccc(C(=O)c2ccccc2C)c(Cl)c1 [Example 73, Ethyl N-(2-(4-(2-methylbenzoyl)-3-chlorophenylamino)phenyl)carbamate] |  |  |  |  |  |

The next lines start with the compound.

| SMILES | IC50 (IL-1β) [nM] | IC50 (TNF-α) [nM] | IC50 (PMN-superoxide) [nM] | % inhibition of MPO (myeloperoxidase (MPO); 0.1 mg/ear) [%] | % inhibition of ET ([1]; 0.1 mg/ear) [%] | % inhibition of MPO (myeloperoxidase (MPO); 0.03 mg/ear) [%] | Reduction of spleen and thymus weight [2] | % inhibition of ET ([1]; 0.03 mg/ear) [%] |
| --- | --- | --- | --- | --- | --- | --- | --- | --- |
| Nc1ccc(Nc2ccc(C(=O)c3ccccc3)cc2)cc1 [Example 2, 4-(4-Aminophenylamino)benzophenone] |  |  |  | 76 | 40 |  |  |  |
| Cc1ccc(S(=O)(=O)Nc2ccccc2Nc2ccc(C(=O)c3ccccc3)cc2)cc1 [Example 27, N-(2-(4-Benzoylphenylamino)phenyl)-4-toluenesulfonamide] |  |  |  | 48 | 44 |  |  |  |
| C[C@]12CCC(=O)C=C1CC[C@@H]1[C@@H]2[C@@H](O)C[C@@]2(C)[C@H]1CC[C@]2(O)C(=O)CO [Hydrocortisone, reference compound] |  |  |  | 69 | 58 | 51 | Reduction of spleen and thymus weight | 36 |

Source: patent publication US6313174A, “Aminobenzophenones as inhibitors of interleukin and TNF” (Leo Pharmaceutical Products Ltd.A/S/ (L.o slashed.vens …, priority 1997, dated 2001)
